Measurements published in US10294202B2, “Pyrrolidinones as herbicides” (FMC Corporation, priority 2013, dated 2019).

Tests used:
barnyardgrass [1] = experiment: Test A pre-/postemergence herbicide test; format: in vivo, Echinochloa crus-galli; conditions: for Barnyardgrass plant response rating: Preemergence, visual rating on 0 to 100 scale (0 no effect, 100 complete control)
Summary of the method: (§1)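 Seeds sown in loam soil/sand blend received a preemergence directed soil spray of test chemical in non-phytotoxic solvent with surfactant; postemergence plants (2–10 cm, one- to two-leaf stage) were sprayed with the same formulation. After about 10 days in greenhouse, injury was rated visually versus untreated controls, 0 (no effect) to 100 (complete control).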

crabgrass, large = experiment: Test A pre-/postemergence herbicide test; format: in vivo, Digitaria sanguinalis; conditions: for Crabgrass, Large plant response rating: Preemergence, visual rating on 0 to 100 scale (0 no effect, 100 complete control)
Summary of the method: as §1

giant foxtail = experiment: Test A pre-/postemergence herbicide test; format: in vivo, Setaria faberii; conditions: for Foxtail, Giant plant response rating: Preemergence, visual rating on 0 to 100 scale (0 no effect, 100 complete control)
Summary of the method: as §1

morningglory = experiment: Test A pre-/postemergence herbicide test; format: in vivo, Ipomoea spp.; conditions: for Morningglory plant response rating: Preemergence, visual rating on 0 to 100 scale (0 no effect, 100 complete control)
Summary of the method: as §1

pigweed = experiment: Test A pre-/postemergence herbicide test; format: in vivo, Amaranthus retroflexus; conditions: for Pigweed plant response rating: Preemergence, visual rating on 0 to 100 scale (0 no effect, 100 complete control)
Summary of the method: as §1

velvetleaf = experiment: Test A pre-/postemergence herbicide test; format: in vivo, Abutilon theophrasti; conditions: for Velvetleaf plant response rating: Preemergence, visual rating on 0 to 100 scale (0 no effect, 100 complete control)
Summary of the method: as §1

wheat = experiment: Test A pre-/postemergence herbicide test; format: in vivo, Triticum aestivum; conditions: for Wheat plant response rating: Preemergence, visual rating on 0 to 100 scale (0 no effect, 100 complete control)
Summary of the method: as §1

corn = experiment: Test A pre-/postemergence herbicide test; format: in vivo, Zea mays; conditions: for Corn plant response rating: Preemergence, visual rating on 0 to 100 scale (0 no effect, 100 complete control)
Summary of the method: as §1

rice = experiment: Test B flooded paddy test; format: in vivo, Oryza sativa; conditions: 250 g ai/ha, Flood; scale of 0 to 100 where 0 is no effect and 100 is complete control
Summary of the method: (§2)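 In-water application to pots flooded 3 cm deep, plants at 2-leaf stage. Held in greenhouse 13–15 days at constant flood depth. Scored 0–100 by eye against controls.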

sedge, umbrella = experiment: Test B flooded paddy test; format: in vivo, Cyperus difformis; conditions: 250 g ai/ha, Flood; scale of 0 to 100 where 0 is no effect and 100 is complete control
Summary of the method: as §2

ducksalad = experiment: Test B flooded paddy test; format: in vivo, Heteranthera limosa; conditions: 250 g ai/ha, Flood; scale of 0 to 100 where 0 is no effect and 100 is complete control
Summary of the method: as §2

barnyardgrass [2] = experiment: Test B flooded paddy test; format: in vivo, Echinochloa crus-galli; conditions: 250 g ai/ha, Flood; scale of 0 to 100 where 0 is no effect and 100 is complete control
Summary of the method: as §2

[3] = Postemergence, 125 g ai/ha, 0 to 100 scale, 0 no effect, 100 complete control
[4] = Postemergence, 500 g ai/ha, 0 to 100 scale (0 no effect, 100 complete control)
[5] = preemergence, 500 g ai/ha, 0 to 100 scale (0 no effect, 100 complete control)
[6] = preemergence, 500 g ai/ha, 0 to 100 scale

Compound | Plant response rating, Barnyardgrass (barnyardgrass [1]; [3]) | Plant response rating, Barnyardgrass (barnyardgrass [1]; [4]) | Barnyardgrass plant response rating (barnyardgrass [1]; 125 g ai/ha) | Plant response rating, Barnyardgrass (barnyardgrass [1]; [5]) | Plant response rating, Crabgrass, Large (crabgrass, large; [3]) | Plant response rating, Crabgrass, Large (crabgrass, large; [4]) | Crabgrass, Large plant response rating (crabgrass, large; 125 g ai/ha) | Plant response rating, Crabgrass, Large (crabgrass, large; [6]) | Plant response rating, Foxtail, Giant (giant foxtail; [3]) | Plant response rating, Foxtail, Giant (giant foxtail; [4]) | Foxtail, Giant plant response rating (giant foxtail; 125 g ai/ha) | Plant response rating, Foxtail, Giant (giant foxtail; [6]) | Plant response rating, Morningglory (morningglory; [3]) | Plant response rating, Morningglory (morningglory; [4]) | Morningglory plant response rating (morningglory; 125 g ai/ha) | Plant response rating, Morningglory (morningglory; [6]) | Plant response rating, Pigweed (pigweed; [3]) | Plant response rating, Pigweed (pigweed; [4]) | Pigweed plant response rating (pigweed; 125 g ai/ha) | Plant response rating, Pigweed (pigweed; [6]) | other results
O=C1NCC(c2cc(F)c(F)c(F)c2)C1C(=O)Nc1cccc([N+](=O)[O-])c1 (stereo not drawn) [Compound 49] | 0 | 20 | 0 | 20 | 20 | 70 | 70 | 90 | 0 | 40 | 20 | 70 | 0 | 0 | 0 | 0 | 0 | 0 | 0 | 0 | Plant response rating, Velvetleaf (velvetleaf; [3]): 0; Plant response rating, Velvetleaf (velvetleaf; [4]): 0; Velvetleaf plant response rating (velvetleaf; 125 g ai/ha): 0; Plant response rating, Velvetleaf (velvetleaf; [6]): 0; Plant response rating, Wheat (wheat; [3]): 0; Plant response rating, Wheat (wheat; [4]): 0; Wheat plant response rating (wheat; 125 g ai/ha): 0; Plant response rating, Wheat (wheat; [6]): 0; Plant response rating, Corn (corn; [3]): 0; Plant response rating, Corn (corn; [4]): 0; Corn plant response rating (corn; 125 g ai/ha): 0; Plant response rating, Corn (corn; [6]): 0; Plant response rating, Rice (rice): 0; Plant response rating, Sedge, Umbrella (sedge, umbrella): 40; Plant response rating, Ducksalad (ducksalad): 70; Plant response rating, Barnyardgrass (barnyardgrass [2]): 0
O=C1NCC(c2cc(F)c(F)cc2F)C1C(=O)Nc1ccccc1F (stereo not drawn) [Compound 51] | 0 | 20 | 0 | 0 | 20 | 80 | 90 | 90 | 0 | 30 | 30 | 90 | 0 | 0 | 0 | 0 | 0 | 0 | 0 | 0 | Plant response rating, Velvetleaf (velvetleaf; [3]): 0; Plant response rating, Velvetleaf (velvetleaf; [4]): 0; Velvetleaf plant response rating (velvetleaf; 125 g ai/ha): 0; Plant response rating, Velvetleaf (velvetleaf; [6]): 0; Plant response rating, Wheat (wheat; [3]): 0; Plant response rating, Wheat (wheat; [4]): 0; Wheat plant response rating (wheat; 125 g ai/ha): 0; Plant response rating, Wheat (wheat; [6]): 0; Plant response rating, Corn (corn; [3]): 0; Plant response rating, Corn (corn; [4]): 0; Corn plant response rating (corn; 125 g ai/ha): 0; Plant response rating, Corn (corn; [6]): 0; Plant response rating, Rice (rice): 15; Plant response rating, Sedge, Umbrella (sedge, umbrella): 45; Plant response rating, Ducksalad (ducksalad): 80; Plant response rating, Barnyardgrass (barnyardgrass [2]): 20
O=C1NCC(c2ccc(F)c(F)c2)C1C(=O)Nc1ccccc1OC(F)(F)F (stereo not drawn) [Compound 54] | 0 | 0 | 0 | 20 | 70 | 80 | 90 | 90 | 60 | 70 | 90 | 90 | 0 | 0 | 0 | 0 | 0 | 0 | 0 | 0 | Plant response rating, Velvetleaf (velvetleaf; [3]): 0; Plant response rating, Velvetleaf (velvetleaf; [4]): 0; Velvetleaf plant response rating (velvetleaf; 125 g ai/ha): 0; Plant response rating, Velvetleaf (velvetleaf; [6]): 0; Plant response rating, Wheat (wheat; [3]): 0; Plant response rating, Wheat (wheat; [4]): 0; Wheat plant response rating (wheat; 125 g ai/ha): 0; Plant response rating, Wheat (wheat; [6]): 20; Plant response rating, Corn (corn; [3]): 0; Plant response rating, Corn (corn; [4]): 0; Corn plant response rating (corn; 125 g ai/ha): 0; Plant response rating, Corn (corn; [6]): 0; Plant response rating, Rice (rice): 20; Plant response rating, Sedge, Umbrella (sedge, umbrella): 0; Plant response rating, Ducksalad (ducksalad): 70; Plant response rating, Barnyardgrass (barnyardgrass [2]): 0
